Data from ChEMBL document CHEMBL1151757, “Synthesis, radiosynthesis, and biological evaluation of fluorine-18-labeled 2beta-carbo(fluoroalkoxy)-3beta-(3'-((Z)-2-haloethenyl)phenyl)nortropanes: candidate radioligands for in vivo imaging of the serotonin transporter with positron emission tomography” (J Med Chem, 2008).

System: Midbrain
Assay: Drug uptake in anesthetized cynomolgus monkey brain midbrain after 225 mins postinjection
Type: ADME, organism-based, Macaca fascicularis
Details: in vivo, 3.75 h

Structure (SMILES) | Drug uptake
O=C(OCC[18F])C1C2CCC(CC1c1ccc(/C=C\I)cc1)N2 (stereo not given) | 4.51

System: Putamen
Assay: Drug uptake in anesthetized cynomolgus monkey brain putamen after 215 mins postinjection
Type: ADME, organism-based, Macaca fascicularis
Details: in vivo

Structure (SMILES) | Drug uptake
O=C(OCC[18F])C1C2CCC(CC1c1ccc(/C=C\I)cc1)N2 (stereo not given) | 3.93

System: not listed separately
Assay: Ratio of drug uptake in caudate to cerebellum in anesthetized cynomolgus monkey after 9.5 mins postinjection
Type: ADME, organism-based, Macaca fascicularis
Details: in vivo

Structure (SMILES) | Ratio
O=C(OCC[18F])C1C2CCC(CC1c1ccc(/C=C\I)cc1)N2 (stereo not given) | 0.7

System: not listed separately
Assay: Ratio of drug uptake in putamen to cerebellum in anesthetized cynomolgus monkey after 215 mins postinjection
Type: ADME, organism-based, Macaca fascicularis
Details: in vivo

Structure (SMILES) | Ratio
O=C(OCC[18F])C1C2CCC(CC1c1ccc(/C=C\I)cc1)N2 (stereo not given) | 3.3

System: Midbrain
Assay: Drug uptake in anesthetized cynomolgus monkey brain midbrain after 95 mins postinjection
Type: ADME, organism-based, Macaca fascicularis
Parameters: unit not given here
Details: in vivo

Structure (SMILES) | Drug uptake
O=C(OCC[18F])C1C2CCC(CC1c1ccc(/C=C\I)cc1)N2 (stereo not given) | 4.6

System: Caudate
Assay: Drug uptake in anesthetized cynomolgus monkey brain caudate after 35 mins postinjection
Type: ADME, organism-based, Macaca fascicularis, Caudate nucleus
Details: in vivo

Structure (SMILES) | Drug uptake
O=C(OCC[18F])C1C2CCC(CC1c1ccc(/C=C\I)cc1)N2 (stereo not given) | 2.33

System: not listed separately
Assay: Drug uptake in anesthetized cynomolgus monkey brain frontal lobe after 2.5 mins postinjection
Type: ADME, organism-based, Macaca fascicularis
Details: in vivo

Structure (SMILES) | Drug uptake
O=C(OCC[18F])C1C2CCC(CC1c1ccc(/C=C\I)cc1)N2 (stereo not given) | 0.24

System: not listed separately
Assay: Ratio of drug uptake in midbrain to cerebellum in anesthetized cynomolgus monkey after 215 mins postinjection
Type: ADME, organism-based, Macaca fascicularis
Details: in vivo

Structure (SMILES) | Ratio
O=C(OCC[18F])C1C2CCC(CC1c1ccc(/C=C\I)cc1)N2 (stereo not given) | 3.9

System: Putamen
Assay: Drug uptake in anesthetized cynomolgus monkey brain putamen after 2.5 mins postinjection
Type: ADME, organism-based, Macaca fascicularis
Details: in vivo

Structure (SMILES) | Drug uptake
O=C(OCC[18F])C1C2CCC(CC1c1ccc(/C=C\I)cc1)N2 (stereo not given) | 0.45

System: not listed separately
Assay: Drug uptake in anesthetized cynomolgus monkey brain occipital lobe after 215 mins postinjection
Type: ADME, organism-based, Macaca fascicularis
Details: in vivo

Structure (SMILES) | Drug uptake
O=C(OCC[18F])C1C2CCC(CC1c1ccc(/C=C\I)cc1)N2 (stereo not given) | 1.68

System: Pons
Assay: Drug uptake in anesthetized cynomolgus monkey brain pons after 85 mins postinjection
Type: ADME, organism-based, Macaca fascicularis
Details: in vivo

Structure (SMILES) | Drug uptake
O=C(OCC[18F])C1C2CCC(CC1c1ccc(/C=C\I)cc1)N2 (stereo not given) | 3.38

System: Putamen
Assay: Drug uptake in anesthetized cynomolgus monkey brain putamen after 85 mins postinjection
Type: ADME, organism-based, Macaca fascicularis
Parameters: unit not given here
Details: in vivo

Structure (SMILES) | Drug uptake
O=C(OCC[18F])C1C2CCC(CC1c1ccc(/C=C\I)cc1)N2 (stereo not given) | 4.32

System: not listed separately
Assay: Drug uptake in anesthetized cynomolgus monkey brain cerebellum after 95 mins postinjection
Type: ADME, organism-based, Macaca fascicularis
Details: in vivo

Structure (SMILES) | Drug uptake
O=C(OCC[18F])C1C2CCC(CC1c1ccc(/C=C\I)cc1)N2 (stereo not given) | 2.14

System: Putamen
Assay: Drug uptake in anesthetized cynomolgus monkey brain putamen after 75 mins postinjection
Type: ADME, organism-based, Macaca fascicularis
Parameters: unit not given here
Details: in vivo, 1.25 h

Structure (SMILES) | Drug uptake
O=C(OCC[18F])C1C2CCC(CC1c1ccc(/C=C\I)cc1)N2 (stereo not given) | 4.28

System: Caudate
Assay: Drug uptake in anesthetized cynomolgus monkey brain caudate after 165 mins postinjection
Type: ADME, organism-based, Macaca fascicularis, Caudate nucleus
Details: in vivo, 2.75 h

Structure (SMILES) | Drug uptake
O=C(OCC[18F])C1C2CCC(CC1c1ccc(/C=C\I)cc1)N2 (stereo not given) | 2.99

System: Thalamus
Assay: Drug uptake in anesthetized cynomolgus monkey brain thalamus after 185 mins postinjection
Type: ADME, organism-based, Macaca fascicularis
Details: in vivo

Structure (SMILES) | Drug uptake
O=C(OCC[18F])C1C2CCC(CC1c1ccc(/C=C\I)cc1)N2 (stereo not given) | 3.8

System: Putamen
Assay: Drug uptake in anesthetized cynomolgus monkey brain putamen after 125 mins postinjection
Type: ADME, organism-based, Macaca fascicularis
Details: in vivo

Structure (SMILES) | Drug uptake
O=C(OCC[18F])C1C2CCC(CC1c1ccc(/C=C\I)cc1)N2 (stereo not given) | 4.34

System: not listed separately
Assay: Ratio of drug uptake in caudate to cerebellum in anesthetized cynomolgus monkey after 18.5 mins postinjection
Type: ADME, organism-based, Macaca fascicularis
Details: in vivo

Structure (SMILES) | Ratio
O=C(OCC[18F])C1C2CCC(CC1c1ccc(/C=C\I)cc1)N2 (stereo not given) | 0.7

System: not listed separately
Assay: Ratio of drug uptake in medulla to cerebellum in anesthetized cynomolgus monkey after 155 mins postinjection
Type: ADME, organism-based, Macaca fascicularis
Details: in vivo

Structure (SMILES) | Ratio
O=C(OCC[18F])C1C2CCC(CC1c1ccc(/C=C\I)cc1)N2 (stereo not given) | 2.5

System: not listed separately
Assay: Ratio of drug uptake in frontal lobe to cerebellum in anesthetized cynomolgus monkey after 3.5 mins postinjection
Type: ADME, organism-based, Macaca fascicularis
Details: in vivo

Structure (SMILES) | Ratio
O=C(OCC[18F])C1C2CCC(CC1c1ccc(/C=C\I)cc1)N2 (stereo not given) | 0.5

System: Medulla
Assay: Drug uptake in anesthetized cynomolgus monkey brain medulla after 18.5 mins postinjection
Type: ADME, organism-based, Macaca fascicularis
Details: in vivo

Structure (SMILES) | Drug uptake
O=C(OCC[18F])C1C2CCC(CC1c1ccc(/C=C\I)cc1)N2 (stereo not given) | 3.01

System: Midbrain
Assay: Drug uptake in anesthetized cynomolgus monkey brain midbrain after 185 mins postinjection
Type: ADME, organism-based, Macaca fascicularis
Details: in vivo

Structure (SMILES) | Drug uptake
O=C(OCC[18F])C1C2CCC(CC1c1ccc(/C=C\I)cc1)N2 (stereo not given) | 4.64

System: Caudate
Assay: Drug uptake in anesthetized cynomolgus monkey brain caudate after 2.5 mins postinjection
Type: ADME, organism-based, Macaca fascicularis, Caudate nucleus
Details: in vivo

Structure (SMILES) | Drug uptake
O=C(OCC[18F])C1C2CCC(CC1c1ccc(/C=C\I)cc1)N2 (stereo not given) | 0.29

System: Thalamus
Assay: Drug uptake in anesthetized cynomolgus monkey brain thalamus after 12.5 mins postinjection
Type: ADME, organism-based, Macaca fascicularis
Parameters: unit not given here
Details: in vivo

Structure (SMILES) | Drug uptake
O=C(OCC[18F])C1C2CCC(CC1c1ccc(/C=C\I)cc1)N2 (stereo not given) | 2.29

System: Pons
Assay: Drug uptake in anesthetized cynomolgus monkey brain pons after 0.5 mins postinjection
Type: ADME, organism-based, Macaca fascicularis
Details: in vivo

Structure (SMILES) | Drug uptake
O=C(OCC[18F])C1C2CCC(CC1c1ccc(/C=C\I)cc1)N2 (stereo not given) | 0
